# Source: ChEMBL document CHEMBL1201862, “PubChem BioAssay data set” (2004)
# The source made the active and inactive calls. Cut-off read from the data, not from the text of the source, for most assays here: actives have a measured EC50 and inactives only a lower limit.
# How the values were obtained:
# [1] = target: T1, Heat shock factor protein 1 (Mus musculus, UniProt P38532); assay: inhibition of MG132-induced HSE-luciferase signal, confirmation, cell-based, NIH3T3, luminescence, dose retest (AID 2382); assay type: functional;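 note: NIH3T3 fibroblasts with HSF1-driven luciferase reporter stressed by proteasome inhibitor MG132; luminescence from HSF1-driven luciferase expression after 8 hours of MG132 stress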
# T1 sequence (P38532 whole entry): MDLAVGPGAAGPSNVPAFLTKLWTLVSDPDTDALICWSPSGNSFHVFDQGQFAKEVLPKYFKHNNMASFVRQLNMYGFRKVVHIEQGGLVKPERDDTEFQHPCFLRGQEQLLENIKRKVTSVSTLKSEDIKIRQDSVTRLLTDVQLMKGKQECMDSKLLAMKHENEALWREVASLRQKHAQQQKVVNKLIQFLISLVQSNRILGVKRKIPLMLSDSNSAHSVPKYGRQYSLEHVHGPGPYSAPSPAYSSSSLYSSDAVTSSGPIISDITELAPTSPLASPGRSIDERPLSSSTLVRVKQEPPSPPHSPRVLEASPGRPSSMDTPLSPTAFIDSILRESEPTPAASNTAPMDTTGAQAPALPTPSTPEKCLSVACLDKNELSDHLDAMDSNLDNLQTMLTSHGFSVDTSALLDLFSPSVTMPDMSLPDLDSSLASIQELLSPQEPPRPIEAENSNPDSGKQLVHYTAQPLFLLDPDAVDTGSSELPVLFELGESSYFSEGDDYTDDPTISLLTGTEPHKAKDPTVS
# [2] = inhibitors of firefly luciferase expression or activity, dose response, H4 neuroglioma cells, luminescence (AID 1990); assay type: functional, cell-based
# [3] = Luminescence Cell-Based Dose Response HTS to Identify Inhibitors of 5'UTR Stem-Loop Driven Prion Protein mRNA Translation in H4 Neuroglioblastoma Cells. [Related pubchem assays: 1827 (Project Summary), 1813 (Primary HTS)]; assay type: functional
# [4] = inhibitors of SNCA 5'UTR-driven reporter translation, confirmation, H4 neuroglioma cells, luminescence (AID 1988); assay type: functional, cell-based
# Streptokinase A = target: T2, Streptokinase A (Streptococcus pyogenes serotype M1, UniProt P10520); assay: S. pyogenes streptokinase expression inhibitors, potency, dose response, plasminogen activation absorbance, OD405 (AID 1914); assay type: functional, Streptococcus pyogenes M1 GAS;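 note: secreted streptokinase activity via plasminogen activation per viability signal from cell pellet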
# T2 sequence (P10520 whole entry): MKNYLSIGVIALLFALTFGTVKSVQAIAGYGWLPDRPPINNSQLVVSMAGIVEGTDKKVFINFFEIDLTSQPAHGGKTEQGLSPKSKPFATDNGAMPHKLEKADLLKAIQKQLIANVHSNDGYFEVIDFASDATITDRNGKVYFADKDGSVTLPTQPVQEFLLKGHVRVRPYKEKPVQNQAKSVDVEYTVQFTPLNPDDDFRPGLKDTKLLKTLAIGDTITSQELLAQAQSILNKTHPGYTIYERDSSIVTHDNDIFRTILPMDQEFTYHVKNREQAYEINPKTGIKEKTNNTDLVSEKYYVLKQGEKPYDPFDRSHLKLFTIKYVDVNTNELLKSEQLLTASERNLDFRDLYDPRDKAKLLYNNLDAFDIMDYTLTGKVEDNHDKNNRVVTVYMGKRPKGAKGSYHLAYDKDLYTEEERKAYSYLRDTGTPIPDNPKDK
# [5] = tested on: Streptococcus sp. 'group A'; assay: growth inhibition of control SK(-) GAS strain, dose response, counter-screen for streptokinase expression inhibitor project, luminescence, kanamycin, BacTiterGlo, confirmation (AID 1900); assay type: functional, organism-based
# Streptococcus = assay: Group A Streptococcus viability loss, dose response, counter-screen for streptokinase expression inhibitor project, luminescence, BacTiterGlo (AID 1915); assay type: functional, organism-based;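 note: potency for reduction of bacterial viability or growth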
# Cytochrome P450 3A4 = Cytochrome P450 3A4 (Homo sapiens, UniProt P08684);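 note: CYP3A4 tested as one member of a cytochrome P450 panel screen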
# Cytochrome P450 3A4, sequence (P08684 whole entry): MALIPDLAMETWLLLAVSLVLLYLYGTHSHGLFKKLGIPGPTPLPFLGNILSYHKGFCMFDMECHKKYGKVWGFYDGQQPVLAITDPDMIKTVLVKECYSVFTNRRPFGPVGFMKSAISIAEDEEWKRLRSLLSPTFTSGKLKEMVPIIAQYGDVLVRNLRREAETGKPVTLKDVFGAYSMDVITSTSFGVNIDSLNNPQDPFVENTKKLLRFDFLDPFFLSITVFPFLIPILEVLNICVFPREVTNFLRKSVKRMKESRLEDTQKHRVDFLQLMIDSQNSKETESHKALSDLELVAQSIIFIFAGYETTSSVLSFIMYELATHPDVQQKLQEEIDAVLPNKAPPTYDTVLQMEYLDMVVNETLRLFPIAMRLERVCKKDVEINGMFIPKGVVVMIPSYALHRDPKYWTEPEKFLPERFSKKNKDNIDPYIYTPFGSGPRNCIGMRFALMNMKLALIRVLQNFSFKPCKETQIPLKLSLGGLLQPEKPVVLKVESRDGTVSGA
# Cytochrome P450 1A2 = target: T3, Cytochrome P450 1A2 (Homo sapiens, UniProt P05177);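 note: PubChem cytochrome P450 panel assay, CYP1A2 panel member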
# T3 sequence (P05177 whole entry): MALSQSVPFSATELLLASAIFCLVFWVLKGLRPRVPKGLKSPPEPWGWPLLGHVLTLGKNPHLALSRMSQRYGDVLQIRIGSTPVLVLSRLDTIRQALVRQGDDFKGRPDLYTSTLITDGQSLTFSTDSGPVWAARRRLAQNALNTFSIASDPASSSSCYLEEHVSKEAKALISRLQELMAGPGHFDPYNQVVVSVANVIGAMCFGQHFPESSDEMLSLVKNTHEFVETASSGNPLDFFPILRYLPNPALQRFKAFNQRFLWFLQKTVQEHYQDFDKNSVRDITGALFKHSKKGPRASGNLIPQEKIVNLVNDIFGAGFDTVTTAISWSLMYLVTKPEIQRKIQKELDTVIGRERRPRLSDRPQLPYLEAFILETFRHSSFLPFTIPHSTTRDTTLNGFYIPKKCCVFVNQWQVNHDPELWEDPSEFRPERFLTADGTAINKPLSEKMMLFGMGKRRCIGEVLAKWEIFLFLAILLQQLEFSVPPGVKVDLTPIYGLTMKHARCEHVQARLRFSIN
# [6] = inhibitors of intracellular T. cruzi replication, confirmation, NIH3T3 host cells, beta-gal luminescence (AID 2044); assay type: functional, cell-based;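 note: intracellular parasites grown in NIH/3T3 mouse fibroblasts as host cells; luminescent beta-galactosidase reporter signal from transgenic T. cruzi replicating inside host cells; inhibitors lower the luminescence signal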
# [7] = cytotoxicity toward NIH3T3 fibroblasts, dose response, counter-screen, cell-based, ATP luminescence, mouse fibroblasts (AID 2010); assay type: functional;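 note: cells exposed to compound for about 90 hours before reading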
# [8] = target: T4, Corticotropin-releasing factor receptor 2/Corticotropin-releasing factor-binding protein (Homo sapiens, UniProt P24387+Q13324); assay: activators of CRF receptor 2 with binding protein – uHTS hits, confirmation (AID 602473); assay type: functional; conditions: read-out: EC50_Mean
# T4 sequence (Q13324 whole entry): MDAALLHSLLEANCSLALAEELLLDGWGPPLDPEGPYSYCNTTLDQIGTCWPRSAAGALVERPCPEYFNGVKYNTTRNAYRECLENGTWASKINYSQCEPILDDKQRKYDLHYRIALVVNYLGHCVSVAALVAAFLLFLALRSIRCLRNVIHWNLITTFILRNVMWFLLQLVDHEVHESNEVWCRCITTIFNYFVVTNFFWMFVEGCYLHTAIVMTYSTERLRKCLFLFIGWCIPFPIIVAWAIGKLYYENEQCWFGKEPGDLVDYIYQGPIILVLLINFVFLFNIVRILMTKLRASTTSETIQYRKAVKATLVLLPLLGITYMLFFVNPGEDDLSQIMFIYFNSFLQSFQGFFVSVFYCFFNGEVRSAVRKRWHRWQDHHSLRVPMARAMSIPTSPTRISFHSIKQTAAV
# T4 sequence (P24387 whole entry): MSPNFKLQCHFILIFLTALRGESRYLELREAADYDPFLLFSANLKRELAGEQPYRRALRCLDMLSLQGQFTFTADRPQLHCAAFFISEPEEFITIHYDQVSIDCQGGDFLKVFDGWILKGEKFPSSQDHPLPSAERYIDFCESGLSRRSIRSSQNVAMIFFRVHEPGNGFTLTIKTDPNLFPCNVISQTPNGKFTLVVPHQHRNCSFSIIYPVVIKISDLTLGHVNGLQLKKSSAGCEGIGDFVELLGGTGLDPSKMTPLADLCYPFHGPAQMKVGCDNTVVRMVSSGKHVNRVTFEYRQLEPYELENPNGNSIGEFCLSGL
# [9] = Luminescence Cell-Based Dose Retest to Confirm Inhibitors of Cancer Stem Cells. [Related pubchem assays (depositor defined):AID2717, AID2721]; assay type: functional; conditions: Homo sapiens
Structure (SMILES),EC50 [1],EC50 (Streptokinase A),EC50 [5],EC50 (Streptococcus),other results
Cc1cc(C)nc(-n2c(C)nc3cc(Cl)ccc3c2=O)c1,35.9 µM (active),,,,
CCCN1C(=O)COc2ccc(-c3nnc(O)c4ccccc34)cc21,,,,,EC50 [2]: 22.7 µM (active); EC50 [3]: > 120 µM (not active); EC50 [4]: 30.9 µM (active)
COC(=O)c1cccc(NC(=S)NCc2ccc(Cl)cc2)c1,,> 150 µM (not active),,,
O=C(Nc1cccc2ncccc12)C(Cl)(Cl)Cl,> 195 µM (not active),,,,
S=C(NCc1ccco1)N1CCN(c2nc(-c3ccc(Cl)cc3)cs2)CC1,,36.4 µM (active),9.38 µM (active),32.1 µM (active),
CCn1nc([N+](=O)[O-])c2c(-c3nc4ccccc4o3)c(N)n(CCCOC)c2c1=O,,,,,EC50 [2]: > 120 µM (not active); EC50 [3]: > 120 µM (not active); EC50 [4]: > 120 µM (not active)
CSc1cccc(NC(=O)OC2CCCCCCCCCCC2)c1,,2.93 µM (active),4.09 µM (active),10.8 µM (active),AC50 (Cytochrome P450 3A4): 3.16 µM (inconclusive); AC50 (Cytochrome P450 1A2): 5.01 µM (inconclusive)
SC1=NC[C@H](CC2CCCCC2)N1CC1CCCCC1,,25.4 µM (active),12.6 µM (active),19.6 µM (active),
O=C(NCCCN1CCCC1=O)c1cccc(N2CCCC2=O)c1,> 195 µM (not active),,,,
CC(=O)c1cnc(SCC(=O)O)nc1C,,,,,EC50 [2]: > 120 µM (not active); EC50 [3]: > 120 µM (not active); EC50 [4]: > 120 µM (not active)
CCSc1nnc(-c2ccc(S(=O)(=O)NCc3cccs3)cc2)o1,> 195 µM (not active),,,,
Cc1cc(NC(=O)COc2coc(CN3CCN(c4ccccc4F)CC3)cc2=O)no1,> 195 µM (not active),,,,
COc1ccc(C(=O)CSc2nc(-c3ccccn3)nc(C)c2Cl)cc1,,> 150 µM (not active),7.92 µM (active),36.4 µM (active),
Cc1cccc(NC(=S)/N=C(\N)Nc2nc(C)c3ccc(C)cc3n2)c1,,> 150 µM (inconclusive),77.2 µM (active),> 150 µM (not active),EC50 [6]: 2.12 µM (active); EC50 [7]: > 60 µM (not active)
CCCCSc1nc2c(c(=O)n1CC)SC(C)C2 (stereo not drawn),,,,,EC50 [2]: 15.3 µM (active); EC50 [3]: > 60 µM (not active); EC50 [4]: > 120 µM (not active)
N#CCc1nn(-c2ccccc2)c2ncnc(N)c12,30.8 µM (active),,,,
COc1ccccc1OCC(=O)NNC(=S)NC(=O)c1ccco1,,> 150 µM (not active),2.81 µM (active),41.4 µM (active),
O=C(CC1CCCCC1)c1c(O)c2ccccc2oc1=O,,> 150 µM (not active),3.42 µM (active),55 µM (active),EC50 [8]: 7.06 µM (active)

Structure (SMILES),EC50 [1],EC50 (Streptokinase A),EC50 [5],EC50 (Streptococcus),other results
Cc1ccc(-c2ccnc3c(Cl)c(C)nn23)cc1,,,,,EC50 [2]: > 120 µM (not active); EC50 [3]: > 120 µM (not active); EC50 [4]: 13.7 µM (active)
Cn1nc(-c2ccccc2)c(CSc2cccc(Cl)c2)c1Cl,,19.8 µM (active),,> 150 µM (not active),
Fc1ccccc1CNc1cc(Cl)cc(Cl)c1,,> 150 µM (not active),9.65 µM (active),17.8 µM (active),
O=S1(=O)N[C@H](c2ccccc2)C[C@H](c2ccc(C(F)(F)F)cc2)O1,> 195 µM (not active),,,,
CC1Cc2cc(C(=O)C3=C(O)C(=O)N(CC4CCCO4)C3c3ccco3)ccc2O1 (stereo not drawn),69.9 µM (active),,,,
CCOC(=O)c1c(C)[nH]c(C(=O)Cn2c(=O)c3c(ncn3CC)n(Cc3ccccc3)c2=O)c1C,,,,,EC50 [2]: > 120 µM (not active); EC50 [3]: > 120 µM (not active); EC50 [4]: 17.2 µM (active)
COc1ccc([C@H]2Oc3cc(O)cc(O)c3C(=O)C2[C@@H]2C(=O)c3c(O)cc(O)cc3O[C@@H]2c2ccc(OC)cc2)cc1 (stereo partly drawn),,1.7 µM (active),2.34 µM (active),2.42 µM (active),AC50 [9]: 7.4 µM (active)
CCC1Sc2ccc(S(=O)(=O)Nc3ccc(OC)cc3)cc2NC1=O (stereo not drawn),> 195 µM (not active),,,,
O=C(Nc1cccnc1)c1coc(=O)c2ccccc12,> 195 µM (not active),,,,
CCOC(=O)c1ccc(NC(=O)N2CCN(S(C)(=O)=O)CC2)cc1,> 195 µM (not active),,,,
N#C/C(=C\c1c[nH]c2ccc(Br)cc12)c1ccccn1,,51.6 µM (active),18.7 µM (active),> 150 µM (not active),AC50 [9]: 2.25 µM (active)
COc1ccc(Cl)cc1C(=O)NCC(=O)OCc1ccccc1,> 195 µM (not active),,,,
O=C(NC1CCCCC1)NC1C2CC3CC(C2)CC1C3 (stereo not drawn),,> 150 µM (not active),> 150 µM (not active),> 150 µM (not active),
CC/N=C1/S/C(=C\c2cn(CC(=O)NCc3ccco3)c3ccccc23)C(=O)N1CC,,,,,EC50 [2]: 11.1 µM (active); EC50 [3]: 14.8 µM (active); EC50 [4]: 13.9 µM (active)
C/C(=N\NC(=O)C12CCC(C)(C(=O)O1)C2(C)C)c1ccccc1O (stereo not drawn),,,,,EC50 [2]: 13.1 µM (active); EC50 [3]: 13.5 µM (active); EC50 [4]: > 120 µM (not active)
CN(C)c1ccc(/C=N\Nc2nc(O)cc(-c3ccccc3)n2)cc1,> 195 µM (not active),,,,
C/N=C1\S/C(=C\c2ccc(N3CCOCC3)c(F)c2)C(=O)N1C,,> 150 µM (not active),5.33 µM (active),12.2 µM (active),
